Experimental data reported in patent US8207314B2, “Tumor antigens for prevention and/or treatment of cancer” (Sanofi Pasteur Limited, priority 2003, dated 2012).

Legend:
[1] = tested on: peptide-loaded TAP-deficient T2 cells; experiment: CTL activity of AAC2-2 peptide pool-specific T-cell line; assay type: cell-based, human; conditions: HLA-A-0201-restricted, T-cell line stimulated by peptide group 6
Protocol: Thus, it was determined that AAC2-2 peptides are immunogenic in the human immune system.

[2] = tested on: autologous T-cell-enriched PBMC preparations; experiment: IFN-γ ELISPOT of human T cells stimulated with AAC2-2 peptide pools; assay type: cell-based; conditions: human T cells from HLA-A-0201 donors, after third and fourth round of stimulation with AAC2-2 peptide pools
Protocol: Using the AAC2-2 amino acid sequence, a library of 9-mer peptides predicted to bind to HLA-A-0201 was constructed (Table III; “N” indicates the sequence is not found within the mouse homolog, while “Y” indicates the sequence is found within the mouse homolog). Twenty-three of the peptides were dissolved in DMSO at 10 mg/ml (Table IV) and used in human PBMC cultures to test for their ability to elicit CD8 and CD4αβ T-cell responses in vitro.
Using GM-CSF and IL-4, dendritic cells (DC) were generated from peripheral blood monocytes of blood donors expressing HLA-A-0201.
These DC were used to stimulate autologous T-cell-enriched PBMC preparations. The T cells were re-stimulated with autologous PBMC and then re-stimulated with CD40-ligand-activated autologous B cells. […] Peptide group 6 includes the following peptides: […] (aa 36-44), […] (aa 41-49), and […] (aa 95-103).

ILTDVTLLV [EC5]
CTL activity killing peptide-loaded T2 target cells [1]: dominant activity
CTL activity killing peptide-loaded T2 target cells ([1]; listed as ILTDVTLLV): dominant peptide
IFN-γ production (ELISPOT) [2]: dominant activity
